Measurements: US5369125A, “Cholesterol-lowering agents” (Merck & Co., Inc., priority 1993, dated 1994)
Converted amounts (≈) assume the structure as drawn.

How the values were obtained:
[1] = test system: Candida albicans MY1055; experiment: Minimum fungicidal concentration, Candida albicans; type: cell-based; conditions: 35° C.
Method: (§1) The compounds are particularly active towards filamentous fungi and yeasts including Candida albicans and Cryptococcus neoformans. The sensitivity of filamentous fungi and yeast was determined using inhibitor dilution assays in microtiter format. The compounds were dissolved in 10% DMSO at 256 μg/mL and serially diluted in (DIFCO) Yeast Nitrogen Base supplemented with 1% glucose (YNBD) by two-fold dilutions yielding final drug concentrations ranging from 128-0.06 μg/mL. The wells were filled with 150 μL of inoculated media. Exponential phase Candida and Cryptococcus cells were diluted in YNBD such that the inoculum was 1.5-7.5×10^3 cells/mL. Aspergillus spores were harvested from a well-sporulated Sabouraud Dextrose Agar (SDA) slant in 0.01% Tween 80 and diluted into media to give an inoculum of 1×10^3 spores/mL. The microtiter dishes were incubated at 35° C. for 24 to 48 hours. […] After recording the MIC of yeasts, plates were shaken on a (SARSTEDT) TPM2 shaker to resuspend the cells and a MIC-2000 inoculator (DYNATECH) was used to transfer a 1.5 μL sample from each well in the microplate to a spot in a single-well tray containing SDA. Inoculated trays were incubated at 35° C. and results were recorded at 24 h or 48 h (for Cryptococcus). The minimum fungicidal concentration (MFC) was defined as the lowest concentration of drug showing no growth or less than 4 colonies per spot. […]

[2] = test system: Aspergillus fumigatus MF4839; experiment: Broth dilution antifungal assay (MIC), Aspergillus fumigatus; type: cell-based; conditions: 24 to 48 hours at 29° C., read-out: Minimum Inhibitory Concentration (MIC)
Method: as §1

[3] = test system: Cryptococcus neoformans MY1051; experiment: Minimum fungicidal concentration, Cryptococcus neoformans; type: cell-based; conditions: 35° C.
Method: as §1

[4] = target: T1, Squalene Synthase (Rattus norvegicus, UniProt Q02769); experiment: Squalene synthase assay (standard in vitro protocol, rat liver microsomes, [4-14C]farnesyl pyrophosphate); type: biochemical; conditions: 30° C., 20 minutes
T1 construct: The livers from these rats were homogenized in 5 volumes (mL/g) of ice cold 50 mM HEPES; from tissue; host or cells: liver microsomes of male Charles River CD rats fed 0.1% lovastatin
T1 sequence (Q02769 1-416): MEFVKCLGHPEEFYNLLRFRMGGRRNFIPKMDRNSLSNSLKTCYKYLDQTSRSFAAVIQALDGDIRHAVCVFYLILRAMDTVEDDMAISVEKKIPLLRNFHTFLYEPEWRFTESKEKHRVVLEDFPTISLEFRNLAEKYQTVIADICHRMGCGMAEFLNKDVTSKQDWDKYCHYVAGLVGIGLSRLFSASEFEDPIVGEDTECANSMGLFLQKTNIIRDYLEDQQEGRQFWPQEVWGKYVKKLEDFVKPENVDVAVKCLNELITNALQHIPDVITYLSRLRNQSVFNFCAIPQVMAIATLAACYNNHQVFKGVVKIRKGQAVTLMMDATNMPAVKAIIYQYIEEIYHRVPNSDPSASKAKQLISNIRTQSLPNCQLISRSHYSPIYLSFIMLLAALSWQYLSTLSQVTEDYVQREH
Method: The intrinsic squalene synthase inhibitory activity of representative compounds of this invention was measured by the standard in vitro protocol described below:
Preparation of Rat Liver Microsomes
Male, CHARLES RIVER CD® rats (120 to 150 g) were fed a diet containing 0.1% lovastatin for 4 days. The livers from these rats were homogenized in 5 volumes (mL/g) of ice cold 50 mM HEPES (4-(2-hydroxyethyl)-1-piperazine-ethanesulfonic acid), 5 mM EDTA(ethylenediaminetetraacetic acid) pH 7.5 with a Potter-Elvehjem type tissue grinder. The homogenate was centrifuged twice at 20,000× g for 15 min. at 4° C., discarding the pellet each time. The supernatant was then centrifuged at 100,000× g for 1 hr at 4° C. The resulting microsomal pellet was resuspended in a volume of the above homogenizing buffer equal to one-fifth the volume of the original homogenate. This microsomal preparation has a protein concentration of about 7 mg/mL. The microsomal suspensions were stored in aliquots at -70° C. Squalene synthase activity in these aliquots is stable for a least several months.
Partial Purification of Prenyl Transferase
Prenyl transferase was purified to use in the enzymatic synthesis of radiolabelled farnesyl pyrophosphate. […]

[5] = target: T2, Farnesyl-protein transferase (Ftase) from bovine brain (Bos taurus, UniProt P29702+P49355); experiment: Farnesyl-transferase assay (inhibition of Ras farnesylation in vitro); type: biochemical; conditions: Ras-CVLS 3.5 μM, 0.25 μM [3H]FPP, partially purified bovine brain enzyme
T2 construct: Farnesyl-protein transferase (Ftase) from bovine brain was chromatographed on DEAE--Sephacel; from tissue; host or cells: bovine brain, partially purified by chromatography
Method: FARNESYL-TRANSFERASE ASSAY
Farnesyl-protein transferase (Ftase) from bovine brain was chromatographed on DEAE--Sephacel (Pharmacia, 0-0.8M NaCl gradient elution), N-octyl agarose (Sigma, 0-0.6M NaCl gradient elution), and a MONO Q HPLC column (Pharmacia, 0-0.3M NaCl gradient). Ras-CVLS at 3.5 μM, 0.25 μM [^3 H]FPP, and the indicated compounds were incubated with this partially purified enzyme preparation. The Ftase data is a measurement of the ability of the test compound to inhibit Ras farnesylation in vitro.

[6] = test system: Ras farnesylation; conditions: Hancock et al., Casey et al., Schafer et al.; cited from earlier work

MIC [2]	IC50 [4]	IC50 [5]	SMILES	MFC [1]	MFC [3]	Inhibition of Ras farnesylation in vivo [6]
16 µg/mL (≈ 24.2 µM)	0.0035 µM	3.3 µM	C=C(CC[C@]12O[C@H](C)[C@@](O)(C(=O)O)[C@](C(=O)O)(O1)[C@H](OC(=O)/C=C/[C@@H](C)C[C@@H](C)CC)[C@H]2O)[C@@H](OC(C)=O)[C@H](C)Cc1ccccc1 [Compound 128, IIA-3-methyl]	128 µg/mL (≈ 194 µM)	0.5 µg/mL (≈ 0.757 µM)	
			CC[C@H](C)C(=O)O[C@H]1CCC=C2C=C[C@H](C)[C@H](CC[C@@H]3C[C@@H](O)CC(=O)O3)[C@H]21 [compactin]			Inhibition of Ras farnesylation in vivo has been demonstrated
			CC[C@H](C)C(=O)O[C@H]1C[C@@H](C)C=C2C=C[C@H](C)[C@H](CC[C@@H]3C[C@@H](O)CC(=O)O3)[C@H]21 [lovastatin]			Inhibition of Ras farnesylation in vivo has been demonstrated
